Test results published in ChEMBL document CHEMBL4219040, “Modulation of Glycine-Mediated Spinal Neurotransmission for the Treatment of Chronic Pain” (J Med Chem, 2018).
Residue numbers refer to the chain shown, from its start.

Tests used:
[1] = biological target: T1, Glycine receptor alpha-3/beta (Homo sapiens, UniProt O75311+P48167); experiment: Positive allosteric modulation of human GlyRalpha3beta expressed in CHO cells assessed as potentiation of EC5 to EC10 glycine-induced response at 10 uM by manual patch clamp assay; type: cell-based
[2] = biological target: T1, Glycine receptor alpha-3/beta; experiment: Positive allosteric modulation of human GlyRalpha3beta expressed in CHO cells assessed as potentiation of EC20 glycine-induced response at 5.9 uM by fluorescence based HTS assay; type: cell-based
[3] = organism: Mus musculus; experiment: Analgesic activity in zymosan-A induced inflammation GlyR3 knock out mouse model assessed as reduction in mechanical hyperalgesia; type: functional; set-up: scale not given: the % may be the effect or the level left
[4] = biological target: T2, Glycine receptor subunit alpha-3 (Mus musculus) (UniProt Q91XP5); experiment: Allosteric modulation of GlyRalpha3 in VGAT::ChR2 BAC transgenic mouse lumbar spinal cord slices assessed as increase in decay time constants of light-evoked Gly-IPSC at 100 uM by Whole cell patch clamp method
T2 sequence (whole entry): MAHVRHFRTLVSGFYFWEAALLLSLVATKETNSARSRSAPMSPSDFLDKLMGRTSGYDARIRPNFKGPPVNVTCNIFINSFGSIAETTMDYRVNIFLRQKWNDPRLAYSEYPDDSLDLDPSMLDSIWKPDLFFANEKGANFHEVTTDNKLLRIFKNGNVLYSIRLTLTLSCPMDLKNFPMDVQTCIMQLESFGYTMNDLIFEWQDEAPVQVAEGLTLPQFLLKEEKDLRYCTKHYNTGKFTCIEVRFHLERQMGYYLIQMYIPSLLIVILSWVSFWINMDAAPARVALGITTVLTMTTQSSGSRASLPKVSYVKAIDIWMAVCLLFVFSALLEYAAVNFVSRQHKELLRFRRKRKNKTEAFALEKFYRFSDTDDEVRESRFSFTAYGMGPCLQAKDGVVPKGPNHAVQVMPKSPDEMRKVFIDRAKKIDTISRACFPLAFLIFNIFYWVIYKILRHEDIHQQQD

[5] = biological target: T1, Glycine receptor alpha-3/beta; experiment: Positive allosteric modulation of human GlyRalpha3beta expressed in CHO cells assessed as potentiation of EC20 glycine-induced ion flux at 10 uM by HT assay; type: cell-based
[6] = organism: Mus musculus; experiment: Analgesic activity in zymosan-A induced inflammation mouse model assessed as reduction in mechanical hyperalgesia; type: functional; set-up: scale not given: the % may be the effect or the level left
[7] = biological target: T2, Glycine receptor subunit alpha-3 (Mus musculus); experiment: Allosteric modulation of zymosan-A treated GlyRalpha3 in VGAT::ChR2 BAC transgenic mouse lumbar spinal cord slices assessed as increase in decay time constants of light-evoked Gly-IPSC at 100 uM by Whole cell patch clamp method
[8] = biological target: T3, Glycine receptor subunit alpha-1 (Homo sapiens) (UniProt P23415); experiment: Positive allosteric modulation of human GlyRalpha1 expressed in HEK293 cells assessed as potentiation of glycine-induced calcium flux by calcium dye-5 based FLIPR assay relative to glycine; type: cell-based
T3 sequence (whole entry): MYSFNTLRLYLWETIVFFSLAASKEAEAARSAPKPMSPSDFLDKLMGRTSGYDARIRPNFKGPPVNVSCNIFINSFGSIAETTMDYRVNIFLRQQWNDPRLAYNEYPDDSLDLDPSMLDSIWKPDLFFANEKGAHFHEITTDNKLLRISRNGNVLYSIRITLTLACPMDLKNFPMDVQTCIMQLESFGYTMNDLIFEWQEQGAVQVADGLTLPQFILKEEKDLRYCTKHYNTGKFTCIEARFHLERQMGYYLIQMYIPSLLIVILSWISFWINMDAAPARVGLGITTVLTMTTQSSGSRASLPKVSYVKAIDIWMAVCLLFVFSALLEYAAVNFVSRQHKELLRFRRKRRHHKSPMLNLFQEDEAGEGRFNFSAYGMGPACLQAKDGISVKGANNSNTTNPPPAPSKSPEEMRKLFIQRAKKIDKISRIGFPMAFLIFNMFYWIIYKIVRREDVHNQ

[9] = biological target: T4, Glycine receptor subunit alpha-1 (Mus musculus) (UniProt Q64018); experiment: Positive allosteric modulation of mouse GlyRalpha1 expressed in HEK293 cells assessed as potentiation of glycine-induced calcium flux by calcium dye-5 based FLIPR assay relative to glycine; type: cell-based
T4 sequence (whole entry): T3 sequence (whole entry) with L9F, E362D, A365G, S396N, Q457K

[10] = biological target: Glycine receptor (alpha-1/beta) (Homo sapiens) (UniProt P23415+P48167); experiment: Positive allosteric modulation of human GlyRalpha1beta expressed in HEK293 cells assessed as potentiation of glycine-induced calcium flux by calcium dye-5 based FLIPR assay relative to glycine; type: cell-based
[11] = biological target: T5, Glycine receptor subunit alpha-3 (Mus musculus, UniProt Q91XP5); experiment: Positive allosteric modulation of mouse GlyRalpha3 expressed in HEK293 cells assessed as potentiation of glycine-induced calcium flux by calcium dye-5 based FLIPR assay; type: cell-based
T5 sequence (Q91XP5 whole entry): T2 sequence (whole entry)

[12] = biological target: T2, Glycine receptor subunit alpha-3 (Mus musculus); experiment: Positive allosteric modulation of mouse GlyRalpha3 expressed in HEK293 cells assessed as potentiation of glycine-induced calcium flux by calcium dye-5 based FLIPR assay relative to glycine; type: cell-based
[13] = biological target: T6, Glycine receptor subunit alpha-1 (Mus musculus, UniProt Q64018); experiment: Positive allosteric modulation of mouse GlyRalpha1 expressed in HEK293 cells assessed as potentiation of glycine-induced calcium flux by calcium dye-5 based FLIPR assay; type: cell-based
T6 sequence (Q64018 whole entry): T3 sequence (whole entry) with L9F, E362D, A365G, S396N, Q457K

[14] = biological target: T1, Glycine receptor alpha-3/beta; experiment: Positive allosteric modulation of human GlyRalpha3beta expressed in HEK293 cells assessed as potentiation of glycine-induced calcium flux by calcium dye-5 based FLIPR assay relative to glycine; type: cell-based
[15] = biological target: T7, Glycine receptor subunit alpha-3 (Homo sapiens) (UniProt O75311); experiment: Positive allosteric modulation of human GlyRalpha3 expressed in HEK293 cells assessed as potentiation of glycine-induced calcium flux by calcium dye-5 based FLIPR assay relative to glycine; type: cell-based
T7 sequence (whole entry): T2 sequence (whole entry) with N32D, T372M, V398M, V399T, A406P

[16] = biological target: T8, Glycine receptor subunit alpha-3 (Homo sapiens, UniProt O75311); experiment: Positive allosteric modulation of human GlyRalpha3 expressed in HEK293 cells assessed as potentiation of glycine-induced current flux by electrophysiology method; type: cell-based
T8 sequence (O75311 whole entry): T2 sequence (whole entry) with N32D, T372M, V398M, V399T, A406P

[17] = biological target: T3, Glycine receptor subunit alpha-1 (Homo sapiens); experiment: Positive allosteric modulation of human GlyRalpha1 expressed in HEK293 cells assessed as potentiation of glycine-induced current flux at 100 uM by electrophysiology method relative to control; type: cell-based
[18] = biological target: T7, Glycine receptor subunit alpha-3 (Homo sapiens); experiment: Positive allosteric modulation of human GlyRalpha3 expressed in HEK293 cells assessed as potentiation of glycine-induced current flux at 100 uM by electrophysiology method relative to control; type: cell-based

SMILES: CC(C)(C)c1cccc(C(C)(C)C)c1O
- Activity [1]: 309%
- Activity [2]: 134%
- Activity [3]: 16%
- Activity [4]: 54%
- Activity [5]: 116%
- Activity [6]: 44.3%
- Activity [7]: 23.5%

SMILES: CN1C(=O)[C@@H]2CN(S(=O)(=O)c3ccc4occc4c3)C[C@@H]2c2cnccc21
- Emax [8]: 102%
- Emax [9]: 93.5%
- Emax [10]: 104%
- EC50 [11]: 490 nM
- Emax [12]: 63.5%
- EC50 [13]: 268 nM
- Emax [14]: 102%
- Emax [15]: 100%

SMILES: CC1=C[C@@H](/C=C(\C)CCCC2=CCN(CC(=O)O)C2=O)[C@]2(OC(=O)C(C)(O)C2=O)[C@@H]2[C@@H](C)CC[C@@H]12 (stereo partly drawn)
- EC50 [16]: 8500 nM
- Activity [17]: 110%
- Activity [18]: 260%
